Test results from publication PMC4553520, “Laboratory and Simulated Field Bioassays to Evaluate Larvicidal Activity of Pinus densiflora Hydrodistillate, Its Constituents and Structurally Related Compounds against Aedes albopictus, Aedes aegypti and Culex pipiens pallens in Relation to Their Inhibitory Effects on Acetylcholinesterase Activity” (Insects, 2013).
In brackets after ≈: the same amount, converted by molar mass.

Key:
[1] = test system: early third-instar larvae of Ae. albopictus; experiment: Direct-contact mortality bioassay, Ae. albopictus larvae; details: for LC50 (Ae. albopictus), mg/L (95% CL): early third-instar larvae, 24 h exposure, direct contact; for LC50: Aedes albopictus, 24 h, read-out: LC50 (Ae. albopictus), mg/L (95% CL)
Method: (§1) Direct-contact mortality bioassays were employed to evaluate the toxicity of all compounds, using early third-instar larvae of each mosquito species. Each compound was dissolved in methanol, and then further diluted in distilled water containing Triton X-100 (20 µL/L). Groups of 20 mosquito larvae of each species were put into separate paper cups (270 mL), each containing different compound solutions (250 mL). The toxicity of each compound was determined by repeating this experimental procedure with different concentrations, ranging from 5 to 200 mg/L. Temephos and fenthion served as standard references and were similarly formulated as well. Controls contained only methanol-Triton X-100 carrier solution in distilled water.
(§2) Both treated and control larvae were kept under the same conditions as those used for colony maintenance. […] Due to certain constraints arising from the number of available larvae, all necessary bioassays could not be conducted simultaneously and thus, treatments were conducted over a period of time, with a separate control treatment included each time. Freshly prepared compound solutions were used for each round of bioassays. All bioassays were repeated three times.
(§3) Concentration-mortality data were subjected to probit analysis using SAS [20]. […] Furthermore, for the compounds tested in AChE inhibition assays, a correlation analysis between their LC50 values and IC50 values was conducted using SAS [20].

[2] = test system: early third-instar larvae of Ae. aegypti; experiment: Direct-contact mortality bioassay, Ae. aegypti larvae; details: for LC50 (Ae. aegypti), mg/L (95% CL): early third-instar larvae, 24 h exposure, direct contact; for LC50: Aedes aegypti, 24 h, read-out: LC50 (Ae. aegypti), mg/L (95% CL)
Method: as §1, §2, §3

[3] = test system: early third-instar larvae of Cx. p. pallens; experiment: Direct-contact mortality bioassay, laboratory-reared Cx. p. pallens larvae; details: for LC50 (Cx p. pallens), mg/L (95% CL): laboratory-reared early third-instar larvae, 24 h exposure, direct contact; for LC50: Culex pipiens, 24 h, read-out: LC50 (Cx p. pallens), mg/L (95% CL)
Method: as §1, §2, §3

[4] = test system: field-collected larvae of Cx. p. pallens; experiment: Semi-field bioassay, field-collected Cx. p. pallens larvae
Method: Larvae of wild mosquitoes were field-collected from irrigated rice fields in Yongin, Korea in early August 2012. A satellite view of the larvae collection site is included in Figure 1 [13].
The buckets were treated with test compounds and covered with nylon mesh screen to prevent other mosquitoes and insects from laying eggs. The buckets were then placed back at the initial collection site and were allowed to stand for 24 h, after which the mortality data were recorded. Temephos and fenthion served as standard references.
as §3

SMILES	LC50 (Ae. albopictus), mg/L (95% CL) [1]	LC50 (Ae. aegypti), mg/L (95% CL) [2]	LC50 (Cx p. pallens), mg/L (95% CL) [3]	LC50 [1] [mg/L]	LC50 [2] [mg/L]	LC50 [3] [mg/L]	LC50 ([4]; Culex pipiens, 24 h, read-out: LC50, mg/L, Field-collected) [mg/L]	Resistance ratio ([4]; field-collected vs laboratory-reared Cx. p. pallens larvae (LC50 ratio))
CC1=C[C@H](O)[C@H]2C[C@@H]1C2(C)C (relative stereo) [(S)-cis-verbenol]	136.86 (121.92–161.87) mg/L	>150 mg/L	140.41 (124.89–167.57) mg/L					
CC1(C)[C@@H]2CC[C@H](CO)[C@H]1C2 (relative stereo) [(−)-cis-myrtanol]	>150 mg/L	>150 mg/L	>150 mg/L					
CC(C)=CCCC(C)CC=O (single isomer, unassigned; (+)) [(+)-citronellal]	46.39 (41.08–52.95) mg/L	48.23 (42.42–55.64) mg/L	49.47 (43.52–57.04) mg/L					
C=C(C)C1CC=C(C)CC1 (single isomer, unassigned; (+)) [(+)-limonene]				10.8 (≈ 79.1 µM)	15.3 (≈ 112 µM)	10.8 (≈ 79 µM)	10.5 (≈ 77.4 µM)	0.98
CC1=CCC(O)(C(C)C)CC1 (single isomer, unassigned; (+)) [(+)-terpinen-4-ol]	98.28 (91.85–105.07) mg/L	78.73 (71.24–85.73) mg/L	86.25 (78.22–95.55) mg/L					
CC1(C)C2CC=C(CO)C1C2 (single isomer, unassigned; (-)) [(−)-myrtenol]	>150 mg/L	>150 mg/L	>150 mg/L					
CC12CCC(CC1)C(C)(C)O2 [1,8-cineole]				73.5 (≈ 476 µM)	73.3 (≈ 475 µM)	72.9 (≈ 472 µM)		
CC1=CC[C@@H]2C[C@H]1C2(C)C [(1R)-(+)-α-pinene]				55.6 (≈ 408 µM)	51.3 (≈ 376 µM)	60.8 (≈ 447 µM)		
CC1=CC[C@H]2C[C@@H]1C2(C)C [(1S)-(−)-α-pinene]				28.6 (≈ 210 µM)	40 (≈ 293 µM)	32 (≈ 235 µM)		
CC(C)=CCCC(C)CCO (stereo not drawn) [(+)-β-citronellol]	90.89 (83.26–99.00) mg/L	93.46 (85.80–101.82) mg/L	87.81 (80.62–95.50) mg/L					
C=C(C)[C@H]1CC=C(C)C(=O)C1 [(S)-(+)-carvone]	43.83 (41.78–45.91) mg/L	42.14 (39.62–44.62) mg/L	46.19 (43.54–49.12) mg/L					
CC(C)=CCC[C@H](C)CC=O [(−)-citronellal]				41.1 (≈ 266 µM)	37.5 (≈ 243 µM)	41.9 (≈ 272 µM)		
CC1=CC(=O)[C@H]2C[C@@H]1C2(C)C [(−)-verbenone]				89.4 (≈ 595 µM)	96.8 (≈ 644 µM)	89.1 (≈ 593 µM)		
CC(C)=CCCC(C)CCO (stereo not drawn) [(−)-β-citronellol]	71.99 (64.67–80.37) mg/L	75.31 (68.31–83.22) mg/L	66.26 (59.63–73.33) mg/L					
C=C1CC[C@@H]2[C@H]([C@@H]3[C@H](C)CC[C@@H]13)C2(C)C [Aromadendrene]	129.21 (118.02–145.97) mg/L	>150 mg/L	147.91 (127.93–188.26) mg/L					
CC1(C)C2CCC1(C)C(O)C2 (centres unmarked) [Borneol]				> 150	> 150	> 150		
CC(=O)OC1CC2CCC1(C)C2(C)C (centres unmarked) [Bornyl acetate]				> 150	> 150	> 150		
C=C1C2CCC(C2)C1(C)C (centres unmarked) [Camphene]				79.1 (≈ 581 µM)	72.9 (≈ 535 µM)	80.1 (≈ 588 µM)		
CC12CCC(CC1=O)C2(C)C (centres unmarked) [Camphor]				> 150	> 150	> 150		
Cc1ccc(C(C)C)cc1O [Carvacrol]				95 (≈ 633 µM)	101 (≈ 673 µM)	91.9 (≈ 612 µM)		
C=C(C)C1CC=C(C)[C@@H](O)C1 (some centres unmarked) [Carveol]				121 (≈ 796 µM)	124 (≈ 814 µM)	114 (≈ 746 µM)		
